Reference: ChEMBL document CHEMBL1201862, “PubChem BioAssay data set” (2004)
Calls of active or inactive are those of the source.

What was measured:
[1] = molecular target: T1, Sphingosine 1-phosphate receptor 2 (Homo sapiens, UniProt O95136); test: Dose Response Cell Based Assay for Agonists of the S1P2 Receptor of Purchased Analogues. [Related pubchem assays: 729, 843, 854, 736 ]; assay type: functional
Vero = test: host cell cytotoxicity of antiviral hits, dose response, cytotoxicity control for West Nile virus antiviral project, secondary assay (AID 1650); assay type: functional; settings: Chlorocebus sabaeus
NADPH oxidase 1 = NADPH oxidase 1 (Homo sapiens, UniProt Q9Y5S8); test: Late-stage luminescence-based cell-based dose response assay to identify inhibitors of NADPH oxidase 1 (NOX1): Purchased analogs 2.; assay type: functional
[2] = molecular target: Diphosphomevalonate decarboxylase (Streptococcus pneumoniae serotype 2 (strain D39 / NCTC 7466), UniProt Q9FD53); test: S. pneumoniae DPM-DC inhibition retest, confirmation, biochemical, cuvette format, coupled NADH fluorescence (AID 1028); assay type: functional
[3] = molecular target: T1, Sphingosine 1-phosphate receptor 2; test: Dose Response Cell Based Assay for Agonists of the S1P2 Receptor. [Related pubchem assays: 729, 736, 843 ]; assay type: functional
[4] = molecular target: Dual specificity tyrosine-phosphorylation-regulated kinase 1A (Rattus norvegicus, UniProt Q63470); assay type: biochemical, Homo sapiens
[5] = molecular target: Peroxisome proliferator-activated receptor gamma/Nuclear receptor corepressor 2 (Homo sapiens, UniProt P37231+Q9Y618); test: Counterscreen for NR2E3 inverse agonists: TR-FRET-based biochemical high throughput dose response assay to identify inverse agonists of the interaction between peroxisome proliferator-activated receptor gamma (PPARg) and nuclear receptor co-repressor 2 (NCOR2).; assay type: functional
[6] = molecular target: T2, RNA-binding protein pos-1 (Caenorhabditis elegans, UniProt G5EF15); test: inhibitors of POS-1/mex-3 RNA binding, dose response, biochemical, fluorescence polarization (AID 1964);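 note: purified POS-1 fused to maltose binding protein made in E. coli; potency of compounds blocking POS-1 binding to fluorescent RNA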
T2 sequence (G5EF15 whole entry): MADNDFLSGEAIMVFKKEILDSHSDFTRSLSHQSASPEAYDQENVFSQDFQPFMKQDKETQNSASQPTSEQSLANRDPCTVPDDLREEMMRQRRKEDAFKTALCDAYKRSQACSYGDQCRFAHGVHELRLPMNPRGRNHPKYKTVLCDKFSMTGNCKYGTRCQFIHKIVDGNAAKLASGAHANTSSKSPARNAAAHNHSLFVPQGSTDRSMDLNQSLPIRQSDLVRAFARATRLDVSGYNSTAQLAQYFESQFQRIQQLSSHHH

[7] = molecular target: Photoreceptor-specific nuclear receptor (Homo sapiens, UniProt Q9Y5X4); test: NR2E3 inverse agonists, dose response, biochemical, TR-FRET (AID 463256); assay type: functional
[8] = molecular target: T3, Zinc finger protein mex-5 (Caenorhabditis elegans, UniProt Q9XUB2); test: MEX-5/TCR-2 RNA interaction inhibitors, dose response, biochemical, C. elegans, fluorescence polarization (AID 1960)
T3 sequence (Q9XUB2 whole entry): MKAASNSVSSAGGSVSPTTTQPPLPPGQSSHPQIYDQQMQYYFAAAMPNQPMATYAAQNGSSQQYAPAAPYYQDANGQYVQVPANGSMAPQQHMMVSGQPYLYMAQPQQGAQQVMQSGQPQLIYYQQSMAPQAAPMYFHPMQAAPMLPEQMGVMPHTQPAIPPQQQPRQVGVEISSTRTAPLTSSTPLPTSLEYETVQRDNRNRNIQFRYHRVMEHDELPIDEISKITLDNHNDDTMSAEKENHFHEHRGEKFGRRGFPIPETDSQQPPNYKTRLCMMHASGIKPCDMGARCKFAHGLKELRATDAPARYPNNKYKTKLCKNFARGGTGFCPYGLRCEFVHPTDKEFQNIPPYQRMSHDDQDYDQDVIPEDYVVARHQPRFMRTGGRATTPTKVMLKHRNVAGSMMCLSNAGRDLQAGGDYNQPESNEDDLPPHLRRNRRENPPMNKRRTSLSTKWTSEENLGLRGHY

[9] = M. tuberculosis growth inhibition, HTS (AID 449762); assay type: functional
[10] = M. tuberculosis H37Rv growth inhibitors, H37Rv strain (AID 1626); assay type: functional
[11] = molecular target: T4, Short transient receptor potential channel 4 (Mus musculus, UniProt Q9QUQ5); test: mouse TRPC4 channel activators, dose response, cell-based, HEK293 TRPC4/mu-opioid, Fluo-4 calcium (AID 434937); assay type: functional
T4 sequence (Q9QUQ5 whole entry): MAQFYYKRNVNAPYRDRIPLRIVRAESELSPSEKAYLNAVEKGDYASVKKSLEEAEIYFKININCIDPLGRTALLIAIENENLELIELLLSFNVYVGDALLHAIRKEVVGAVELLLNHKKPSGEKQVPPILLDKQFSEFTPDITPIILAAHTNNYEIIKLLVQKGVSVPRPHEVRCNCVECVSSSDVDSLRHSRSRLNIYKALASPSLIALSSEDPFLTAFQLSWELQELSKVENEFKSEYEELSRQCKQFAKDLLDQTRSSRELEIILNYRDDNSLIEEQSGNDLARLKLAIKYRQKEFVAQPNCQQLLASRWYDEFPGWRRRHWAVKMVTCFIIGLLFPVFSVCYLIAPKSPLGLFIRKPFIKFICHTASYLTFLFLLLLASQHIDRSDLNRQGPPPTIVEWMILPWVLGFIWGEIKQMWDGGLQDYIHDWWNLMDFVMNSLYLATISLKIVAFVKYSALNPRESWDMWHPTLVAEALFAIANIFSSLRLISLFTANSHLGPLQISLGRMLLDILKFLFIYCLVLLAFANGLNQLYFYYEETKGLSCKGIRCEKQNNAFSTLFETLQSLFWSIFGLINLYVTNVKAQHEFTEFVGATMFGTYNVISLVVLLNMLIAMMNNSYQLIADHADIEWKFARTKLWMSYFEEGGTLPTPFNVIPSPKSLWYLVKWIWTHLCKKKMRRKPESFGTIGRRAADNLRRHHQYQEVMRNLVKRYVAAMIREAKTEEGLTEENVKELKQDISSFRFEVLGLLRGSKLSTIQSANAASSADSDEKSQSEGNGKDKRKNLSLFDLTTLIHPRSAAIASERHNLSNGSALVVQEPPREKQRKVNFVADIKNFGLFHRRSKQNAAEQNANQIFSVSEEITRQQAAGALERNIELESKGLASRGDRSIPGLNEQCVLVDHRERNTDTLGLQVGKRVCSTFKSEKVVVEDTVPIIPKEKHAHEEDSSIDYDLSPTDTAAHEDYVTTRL

Troponin, cardiac muscle = Troponin, cardiac muscle (Homo sapiens, UniProt P19429+P45379+P63316); test: Fluorescence-based biochemical high throughput dose response assay for activators of the calcium sensitivity of cardiac Regulated Thin Filaments (RTF). [Related pubchem assays (depositor defined):AID493008, AID493018, AID504382, AID504383]; assay type: protein-complex assay

T1 sequence (O95136 whole entry): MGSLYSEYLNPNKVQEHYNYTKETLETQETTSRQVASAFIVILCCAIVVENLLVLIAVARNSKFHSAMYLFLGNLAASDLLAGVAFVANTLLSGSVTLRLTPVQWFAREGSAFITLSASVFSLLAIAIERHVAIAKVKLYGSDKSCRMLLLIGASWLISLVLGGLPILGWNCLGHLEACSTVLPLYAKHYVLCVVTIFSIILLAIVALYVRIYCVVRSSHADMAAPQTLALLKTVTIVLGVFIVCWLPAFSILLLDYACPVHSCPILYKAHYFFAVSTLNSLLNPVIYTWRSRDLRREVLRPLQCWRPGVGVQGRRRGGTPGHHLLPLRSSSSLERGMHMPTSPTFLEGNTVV
Diphosphomevalonate decarboxylase, sequence (Q9FD53 whole entry): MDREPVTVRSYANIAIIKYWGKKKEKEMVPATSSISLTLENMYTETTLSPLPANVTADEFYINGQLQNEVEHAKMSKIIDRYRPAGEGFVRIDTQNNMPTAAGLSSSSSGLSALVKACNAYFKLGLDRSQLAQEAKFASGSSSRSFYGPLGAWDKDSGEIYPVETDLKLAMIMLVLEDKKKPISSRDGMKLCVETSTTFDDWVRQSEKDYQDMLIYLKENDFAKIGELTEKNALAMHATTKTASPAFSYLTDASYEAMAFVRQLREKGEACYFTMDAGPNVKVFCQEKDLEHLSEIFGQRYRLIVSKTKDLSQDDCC
Photoreceptor-specific nuclear receptor, sequence (Q9Y5X4 whole entry): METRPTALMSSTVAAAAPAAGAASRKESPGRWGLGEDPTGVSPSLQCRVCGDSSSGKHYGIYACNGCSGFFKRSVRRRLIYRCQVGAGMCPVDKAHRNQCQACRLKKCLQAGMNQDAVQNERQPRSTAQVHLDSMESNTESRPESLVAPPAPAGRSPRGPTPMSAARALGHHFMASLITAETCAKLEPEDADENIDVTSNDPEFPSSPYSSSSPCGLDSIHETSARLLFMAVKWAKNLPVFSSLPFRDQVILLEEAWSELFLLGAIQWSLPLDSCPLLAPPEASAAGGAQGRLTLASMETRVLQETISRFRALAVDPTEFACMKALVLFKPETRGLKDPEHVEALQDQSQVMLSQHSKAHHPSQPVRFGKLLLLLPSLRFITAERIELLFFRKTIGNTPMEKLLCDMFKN
NADPH oxidase 1, sequence (Q9Y5S8 whole entry): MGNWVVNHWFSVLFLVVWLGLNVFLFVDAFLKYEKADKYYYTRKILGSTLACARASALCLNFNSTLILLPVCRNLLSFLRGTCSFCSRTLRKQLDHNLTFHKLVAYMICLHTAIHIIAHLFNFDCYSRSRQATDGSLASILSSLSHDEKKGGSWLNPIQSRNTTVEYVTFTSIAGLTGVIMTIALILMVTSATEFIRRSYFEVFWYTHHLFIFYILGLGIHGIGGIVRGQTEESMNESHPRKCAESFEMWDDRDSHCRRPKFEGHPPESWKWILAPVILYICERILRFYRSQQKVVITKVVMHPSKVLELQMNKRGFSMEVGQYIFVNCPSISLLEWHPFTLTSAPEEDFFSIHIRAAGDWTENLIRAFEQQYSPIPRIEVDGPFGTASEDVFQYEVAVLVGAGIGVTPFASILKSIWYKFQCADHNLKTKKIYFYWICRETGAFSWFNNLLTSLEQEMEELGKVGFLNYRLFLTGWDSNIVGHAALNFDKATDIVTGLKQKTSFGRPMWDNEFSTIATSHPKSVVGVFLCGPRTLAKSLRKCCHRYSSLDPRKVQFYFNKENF
Peroxisome proliferator-activated receptor gamma/Nuclear receptor corepressor 2, sequence (P37231 whole entry, the tested form may be a part): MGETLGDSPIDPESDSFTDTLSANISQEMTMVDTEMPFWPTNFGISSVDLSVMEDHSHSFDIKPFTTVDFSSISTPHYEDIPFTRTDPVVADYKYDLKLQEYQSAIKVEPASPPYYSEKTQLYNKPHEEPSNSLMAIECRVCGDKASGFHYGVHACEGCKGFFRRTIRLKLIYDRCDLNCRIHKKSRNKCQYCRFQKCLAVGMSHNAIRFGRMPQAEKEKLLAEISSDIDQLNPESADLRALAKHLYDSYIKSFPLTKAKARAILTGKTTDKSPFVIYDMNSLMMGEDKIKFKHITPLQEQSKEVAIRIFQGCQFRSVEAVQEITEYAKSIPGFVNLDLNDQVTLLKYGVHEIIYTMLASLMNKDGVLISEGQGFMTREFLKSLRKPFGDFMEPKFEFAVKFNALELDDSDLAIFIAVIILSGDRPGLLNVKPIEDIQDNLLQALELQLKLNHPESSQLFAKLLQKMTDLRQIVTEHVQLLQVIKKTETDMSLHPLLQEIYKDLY
Peroxisome proliferator-activated receptor gamma/Nuclear receptor corepressor 2, sequence (Q9Y618 whole entry, the tested form may be a part): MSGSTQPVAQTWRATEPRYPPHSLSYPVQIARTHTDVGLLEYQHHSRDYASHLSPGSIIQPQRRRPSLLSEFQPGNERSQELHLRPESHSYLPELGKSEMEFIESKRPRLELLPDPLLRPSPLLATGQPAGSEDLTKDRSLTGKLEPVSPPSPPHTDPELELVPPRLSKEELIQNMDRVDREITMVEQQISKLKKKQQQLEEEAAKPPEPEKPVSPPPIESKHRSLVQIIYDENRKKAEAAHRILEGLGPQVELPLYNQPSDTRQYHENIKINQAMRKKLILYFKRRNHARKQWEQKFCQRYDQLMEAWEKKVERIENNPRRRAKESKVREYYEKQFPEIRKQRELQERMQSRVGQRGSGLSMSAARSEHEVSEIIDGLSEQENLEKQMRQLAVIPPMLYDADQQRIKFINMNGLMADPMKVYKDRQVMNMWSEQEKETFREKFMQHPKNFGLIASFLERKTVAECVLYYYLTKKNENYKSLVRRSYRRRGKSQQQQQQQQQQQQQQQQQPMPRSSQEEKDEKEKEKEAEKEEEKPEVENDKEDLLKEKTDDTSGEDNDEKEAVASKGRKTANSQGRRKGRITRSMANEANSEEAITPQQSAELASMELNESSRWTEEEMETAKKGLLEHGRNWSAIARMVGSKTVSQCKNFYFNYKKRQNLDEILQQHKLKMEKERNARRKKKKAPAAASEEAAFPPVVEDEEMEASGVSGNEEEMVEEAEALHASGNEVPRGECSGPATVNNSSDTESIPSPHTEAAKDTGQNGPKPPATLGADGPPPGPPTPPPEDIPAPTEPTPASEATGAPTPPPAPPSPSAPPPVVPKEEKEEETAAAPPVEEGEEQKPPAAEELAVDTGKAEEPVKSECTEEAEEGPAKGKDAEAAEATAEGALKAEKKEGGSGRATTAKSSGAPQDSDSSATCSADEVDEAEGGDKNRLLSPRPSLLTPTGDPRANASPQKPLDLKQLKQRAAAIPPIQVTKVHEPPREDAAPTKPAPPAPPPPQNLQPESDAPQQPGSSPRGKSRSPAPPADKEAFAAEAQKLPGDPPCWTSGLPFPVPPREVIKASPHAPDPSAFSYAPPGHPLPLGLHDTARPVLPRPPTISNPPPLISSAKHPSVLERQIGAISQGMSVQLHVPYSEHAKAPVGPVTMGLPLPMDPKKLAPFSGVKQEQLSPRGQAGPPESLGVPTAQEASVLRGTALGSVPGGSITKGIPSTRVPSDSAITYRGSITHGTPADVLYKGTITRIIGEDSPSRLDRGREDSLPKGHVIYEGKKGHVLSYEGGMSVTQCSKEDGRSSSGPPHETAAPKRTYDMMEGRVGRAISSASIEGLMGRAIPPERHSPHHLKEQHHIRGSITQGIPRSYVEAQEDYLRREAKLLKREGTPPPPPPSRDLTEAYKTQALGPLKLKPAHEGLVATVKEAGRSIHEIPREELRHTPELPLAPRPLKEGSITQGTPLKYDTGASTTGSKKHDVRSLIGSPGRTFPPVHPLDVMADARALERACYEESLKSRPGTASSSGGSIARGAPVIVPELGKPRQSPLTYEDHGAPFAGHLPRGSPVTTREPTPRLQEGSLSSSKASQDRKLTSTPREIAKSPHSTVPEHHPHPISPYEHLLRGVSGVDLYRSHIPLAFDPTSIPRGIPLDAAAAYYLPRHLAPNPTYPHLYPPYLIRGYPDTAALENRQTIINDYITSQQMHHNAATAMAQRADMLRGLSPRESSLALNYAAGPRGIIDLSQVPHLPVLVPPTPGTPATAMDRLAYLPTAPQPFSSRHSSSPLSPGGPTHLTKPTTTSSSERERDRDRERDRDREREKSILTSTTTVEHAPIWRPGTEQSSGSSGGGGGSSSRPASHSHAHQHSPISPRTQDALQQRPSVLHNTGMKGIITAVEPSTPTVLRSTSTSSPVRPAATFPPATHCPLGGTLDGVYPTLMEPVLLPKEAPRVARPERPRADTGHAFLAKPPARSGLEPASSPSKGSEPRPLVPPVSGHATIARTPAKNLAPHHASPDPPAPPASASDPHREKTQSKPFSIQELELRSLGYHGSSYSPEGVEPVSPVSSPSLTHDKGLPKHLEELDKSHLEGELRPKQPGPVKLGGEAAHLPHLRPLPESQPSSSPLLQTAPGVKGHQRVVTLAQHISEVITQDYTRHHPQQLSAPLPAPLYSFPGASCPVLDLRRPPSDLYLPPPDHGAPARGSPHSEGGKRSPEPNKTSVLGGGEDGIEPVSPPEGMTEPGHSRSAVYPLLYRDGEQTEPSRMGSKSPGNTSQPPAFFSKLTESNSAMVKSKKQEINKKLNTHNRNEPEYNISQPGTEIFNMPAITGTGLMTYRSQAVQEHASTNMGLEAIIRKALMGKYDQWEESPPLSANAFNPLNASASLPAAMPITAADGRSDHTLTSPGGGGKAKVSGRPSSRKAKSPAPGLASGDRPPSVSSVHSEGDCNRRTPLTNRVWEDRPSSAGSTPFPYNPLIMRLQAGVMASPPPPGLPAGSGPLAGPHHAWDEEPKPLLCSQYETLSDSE

Question: For Cc1cc(C(=O)CSc2nnnn2C2CC2)c(C)n1Cc1ccccc1, which EC50 [1] is on record?
Answer: > 30 µM (not active)

Question: Which CC50 (Vero) does the source give for CC(C(=O)N(C)C1CCS(=O)(=O)C1)N1C(=O)/C(=C/c2cccs2)SC1=S (centres undefined) here?
Answer: 32.1 µM (active)

Question: For O=C1Nc2cc(F)ccc2/C1=N/Nc1c(F)c(F)nc(F)c1F, which IC50 (NADPH oxidase 1) is on record?
Answer: > 17 µM (not active)

Question: For CCCN(CCC)C(=O)c1ccc(-n2sc3ccccc3c2=O)cc1, which IC50 [2] is on record?
Answer: 7.64 µM (active)

Question: For O=C1SC(c2ccccc2)=N/C1=C/c1ccco1, which EC50 [3] is on record?
Answer: > 50 µM (not active)

Question: Which results are given for N=C1NC(=O)/C(=C/c2ccc(-c3ccc(S(N)(=O)=O)cc3)o2)S1?
Answer: AC50 [4]: 1.97 µM (active); IC50 [5]: > 39.8 µM (not active); EC50 [6]: 31.9 µM (active); IC50 [7]: 14.2 µM (not active); EC50 [8]: 15 µM (active)

Question: With C/C(=C\C(=O)c1ccccc1)Nc1ccc(Cl)c(Br)c1 as the compound, how does the IC50 [9] read?
Answer: > 100 µM (active)

Question: What does the source list for CC(C)(C)C(=O)/C=c1\s/c(=C\c2ccc(-c3ccc([N+](=O)[O-])cc3)o2)c(=O)n1CC(=O)NC(N)=O?
Answer: IC50 [10]: > 100 µM (active); EC50 [11]: 5.31 µM (active); EC50 (Troponin, cardiac muscle): 0.565 µM (active)
